For assay [1], the target named is T1, Sentrin-specific protease 1 (Homo sapiens, UniProt Q9P0U3). Briefly: Dose response confirmation of small molecule inhibitors of the catalytic domain of the SUMO protease, SENP1 in a FRET assay. Format: functional. Conditions: read-out: IC50_Mean.
Assay [2] deals with T1, Sentrin-specific protease 1. In words: potency of human SENP1 inhibitors, dose response, biochemical, kinetic FRET (AID 651697). The conditions noted are these: read-out: IC50_Mean. Format: functional.
In assay [3] the test system is Cryptococcus neoformans. In words: PubChem AID 686997. Format: functional, organism-based. Conditions: Cryptococcus neoformans.
For assay [4], the system named is Cryptococcus neoformans. In words: Cryptococcus growth inhibition by alamar blue – cell lysis, cherry-picks, replicate tests, mechanism study for C. neoformans antifungal project, dose response (AID 686999). It counts as functional, organism-based. Background: Alamar Blue is a resazurin reagent that responds to reducing activity.
Assay [5] can be described thus: LMP1-driven NF-kB reporter inhibition, dose response, cell-based, luciferase reporter, luminescence, dry powder, set 2 (AID 624376). It counts as functional.
The nature of assay [6]: HEK293 cell viability, dose response, counter-screen for EBV LMP1 inhibitor project, dry powder, set 2 (AID 624374). It counts as functional. For orientation: The purpose of a counterscreen is to sort out artefacts and off-target activity.
Assay [7] concerns the target T2, Rac GTPase-activating protein 1 (Homo sapiens, UniProt Q9H0H5).
T2 sequence (Q9H0H5 whole entry): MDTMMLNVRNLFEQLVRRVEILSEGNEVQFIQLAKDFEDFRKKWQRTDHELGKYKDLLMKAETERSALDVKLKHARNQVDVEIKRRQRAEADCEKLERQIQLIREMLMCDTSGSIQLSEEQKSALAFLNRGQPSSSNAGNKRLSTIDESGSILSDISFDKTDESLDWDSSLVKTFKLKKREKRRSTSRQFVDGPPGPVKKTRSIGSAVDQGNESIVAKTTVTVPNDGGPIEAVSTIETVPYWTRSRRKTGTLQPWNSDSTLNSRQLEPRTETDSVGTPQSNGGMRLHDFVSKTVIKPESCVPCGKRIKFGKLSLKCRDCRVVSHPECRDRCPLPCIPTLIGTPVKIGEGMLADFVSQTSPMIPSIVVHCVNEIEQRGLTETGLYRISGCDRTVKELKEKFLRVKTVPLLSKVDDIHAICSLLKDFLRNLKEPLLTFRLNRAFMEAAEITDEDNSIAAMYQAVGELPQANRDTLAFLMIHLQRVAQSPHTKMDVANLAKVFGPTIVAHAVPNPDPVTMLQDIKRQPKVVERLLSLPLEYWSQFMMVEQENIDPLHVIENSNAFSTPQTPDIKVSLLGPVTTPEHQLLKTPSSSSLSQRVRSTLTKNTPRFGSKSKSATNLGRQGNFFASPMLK
Briefly: MgcRacGAP GTPase-activating activity inhibitors, confirmation, biochemical, ADP Hunter fluorescence, primary and confirmatory (AID 624330). It counts as functional.

A short description of assay [8]: HeLa cell cytotoxicity, dose response, cytotoxicity control for MgcRacGAP inhibitor project (AID 624300). It counts as functional.
The next assay has as its target Genome polyprotein (dengue virus type 2, UniProt P29990). Briefly: Dengue-2 NS5 methyltransferase inhibitors, primary screen, biochemical, confirmation dose response (AID 588689). Format: functional.
For assay [9], the target named is T3, Replicative DNA helicase DnaB (Mycobacterium tuberculosis, UniProt P9WMR3).
T3 sequence (P9WMR3 whole entry): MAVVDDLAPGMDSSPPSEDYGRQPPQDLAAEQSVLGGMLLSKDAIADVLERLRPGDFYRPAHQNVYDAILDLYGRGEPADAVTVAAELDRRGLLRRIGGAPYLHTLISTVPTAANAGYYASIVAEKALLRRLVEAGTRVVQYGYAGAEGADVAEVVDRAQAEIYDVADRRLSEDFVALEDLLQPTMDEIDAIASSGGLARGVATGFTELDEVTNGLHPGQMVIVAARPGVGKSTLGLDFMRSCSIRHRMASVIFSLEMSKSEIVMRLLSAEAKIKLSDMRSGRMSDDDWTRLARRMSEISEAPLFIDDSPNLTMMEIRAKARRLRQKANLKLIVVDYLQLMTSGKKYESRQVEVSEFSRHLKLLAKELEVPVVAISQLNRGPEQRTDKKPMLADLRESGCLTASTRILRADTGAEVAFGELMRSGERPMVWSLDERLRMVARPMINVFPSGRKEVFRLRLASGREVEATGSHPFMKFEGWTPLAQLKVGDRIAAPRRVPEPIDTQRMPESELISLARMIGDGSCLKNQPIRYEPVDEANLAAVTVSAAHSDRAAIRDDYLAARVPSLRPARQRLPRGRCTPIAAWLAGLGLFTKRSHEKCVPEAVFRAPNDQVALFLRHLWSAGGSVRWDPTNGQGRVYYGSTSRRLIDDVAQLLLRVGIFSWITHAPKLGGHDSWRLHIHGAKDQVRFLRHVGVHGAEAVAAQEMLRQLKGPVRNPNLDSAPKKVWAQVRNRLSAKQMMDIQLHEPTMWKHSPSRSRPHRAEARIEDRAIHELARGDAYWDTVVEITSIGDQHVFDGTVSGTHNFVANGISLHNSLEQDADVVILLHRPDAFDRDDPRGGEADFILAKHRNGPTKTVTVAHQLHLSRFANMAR
Briefly: DnaB intein splicing inhibitors, dose response, biochemical, cell-free fluorescence (AID 449749). It counts as functional.

In another assay the target is T4, Protein RecA (Mycobacterium tuberculosis, UniProt P9WHJ3).
T4 sequence (P9WHJ3 whole entry): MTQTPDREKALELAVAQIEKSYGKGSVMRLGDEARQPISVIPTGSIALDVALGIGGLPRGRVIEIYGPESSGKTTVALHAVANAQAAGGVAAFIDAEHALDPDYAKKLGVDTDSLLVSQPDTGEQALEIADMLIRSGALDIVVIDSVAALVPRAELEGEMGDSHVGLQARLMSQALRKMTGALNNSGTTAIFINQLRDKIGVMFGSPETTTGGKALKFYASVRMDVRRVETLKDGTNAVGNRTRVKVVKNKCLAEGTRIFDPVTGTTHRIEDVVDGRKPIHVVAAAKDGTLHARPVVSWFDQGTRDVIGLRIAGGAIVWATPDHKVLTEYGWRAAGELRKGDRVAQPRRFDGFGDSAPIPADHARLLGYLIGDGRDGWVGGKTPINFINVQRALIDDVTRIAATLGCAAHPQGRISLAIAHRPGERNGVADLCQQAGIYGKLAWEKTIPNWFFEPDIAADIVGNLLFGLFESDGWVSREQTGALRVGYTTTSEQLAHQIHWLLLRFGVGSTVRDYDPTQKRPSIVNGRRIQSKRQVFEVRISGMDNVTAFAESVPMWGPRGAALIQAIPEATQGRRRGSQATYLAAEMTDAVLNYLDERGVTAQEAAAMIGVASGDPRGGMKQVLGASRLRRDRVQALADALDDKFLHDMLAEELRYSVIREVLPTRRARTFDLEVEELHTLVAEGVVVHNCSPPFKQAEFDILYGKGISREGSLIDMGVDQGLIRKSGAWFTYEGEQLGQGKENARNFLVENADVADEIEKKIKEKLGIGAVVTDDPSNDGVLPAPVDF
In words: Fluorescence Cell-Free Homogeneous Dose Retest to Identify Inhibitors of RecA-Intein Splicing Activity. [Related pubchem assays (depositor defined):AID2097, AID2223, AID489010, AID492950]. It counts as functional.

Assay [10] deals with T5, Sentrin-specific protease 8 (Homo sapiens, UniProt Q96LD8).
T5 sequence (Q96LD8 whole entry): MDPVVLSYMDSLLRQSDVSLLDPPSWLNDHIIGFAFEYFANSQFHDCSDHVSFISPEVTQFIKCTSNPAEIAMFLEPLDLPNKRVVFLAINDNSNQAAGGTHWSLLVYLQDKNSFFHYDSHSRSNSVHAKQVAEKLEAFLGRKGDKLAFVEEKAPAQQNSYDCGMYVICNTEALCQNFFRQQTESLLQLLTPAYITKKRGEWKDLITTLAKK
Format: functional.

A further assay addresses T6, Caspase-3 (Homo sapiens, UniProt P42574).
T6 sequence (P42574 whole entry): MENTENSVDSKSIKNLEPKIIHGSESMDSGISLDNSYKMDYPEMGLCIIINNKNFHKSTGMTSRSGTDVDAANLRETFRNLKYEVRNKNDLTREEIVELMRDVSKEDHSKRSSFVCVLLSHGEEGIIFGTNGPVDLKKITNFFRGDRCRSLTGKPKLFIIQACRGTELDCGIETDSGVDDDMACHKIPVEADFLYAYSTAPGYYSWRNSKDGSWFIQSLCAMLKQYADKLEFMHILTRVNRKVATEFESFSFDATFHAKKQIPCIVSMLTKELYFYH
Briefly: Dose-response confirmation of uHTS inhibitor hits of Sentrin-Specific Protease 8 in a Caspase-3 Fluorescence assay. Format: functional.

Assay [11] concerns the target T5, Sentrin-specific protease 8. It counts as functional. This is another data set of the same source.
For assay [12], the target named is Induced myeloid leukemia cell differentiation protein Mcl-1 (Homo sapiens, UniProt Q07820). Format: functional.
Sequence of Induced myeloid leukemia cell differentiation protein Mcl-1 (Q07820 whole entry): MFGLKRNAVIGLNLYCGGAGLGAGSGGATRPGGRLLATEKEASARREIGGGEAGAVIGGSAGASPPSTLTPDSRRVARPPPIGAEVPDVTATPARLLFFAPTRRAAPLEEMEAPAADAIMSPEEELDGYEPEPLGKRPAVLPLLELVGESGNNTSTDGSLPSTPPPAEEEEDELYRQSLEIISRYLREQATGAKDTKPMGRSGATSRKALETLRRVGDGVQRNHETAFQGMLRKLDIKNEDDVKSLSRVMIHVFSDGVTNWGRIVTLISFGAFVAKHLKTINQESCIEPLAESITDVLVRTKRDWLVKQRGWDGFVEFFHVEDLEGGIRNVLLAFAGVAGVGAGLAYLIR
Assay [13] concerns the target T7, Mannose-6-phosphate isomerase (Homo sapiens, UniProt P34949).
T7 sequence (P34949 whole entry): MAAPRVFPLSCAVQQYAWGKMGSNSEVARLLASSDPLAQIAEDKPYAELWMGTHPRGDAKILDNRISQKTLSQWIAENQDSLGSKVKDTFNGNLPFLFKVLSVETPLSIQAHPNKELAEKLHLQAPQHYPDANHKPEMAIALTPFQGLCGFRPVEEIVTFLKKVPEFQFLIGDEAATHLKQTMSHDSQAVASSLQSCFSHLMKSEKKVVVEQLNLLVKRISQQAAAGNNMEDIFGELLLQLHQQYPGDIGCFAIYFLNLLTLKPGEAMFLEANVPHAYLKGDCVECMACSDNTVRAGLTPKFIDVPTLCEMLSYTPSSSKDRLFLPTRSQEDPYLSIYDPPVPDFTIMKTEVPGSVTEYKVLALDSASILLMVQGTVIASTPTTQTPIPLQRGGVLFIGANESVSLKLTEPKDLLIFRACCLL
In words: human PMI inhibitors, high substrate, primary screen, biochemical, fluorescence intensity, high mannose 6-phosphate (AID 1220).

The nature of assay [14]: cells. It counts as functional, cell-based.
Assay [15] is described as follows: Vero E6 cell cytotoxicity, dose response, cytotoxicity control for non-replicating M. tuberculosis project, secondary assay (AID 492998). Format: functional, VeroE6. The conditions noted are these: Vero C1008.
Assay [16] in a line: THP-1 cell cytotoxicity, dose response, cytotoxicity control for non-replicating M. tuberculosis project (AID 489025). Format: functional.
A short description of assay [17]: cytotoxicity toward NIH3T3 fibroblasts, dose response, counter-screen, cell-based, ATP luminescence, mouse fibroblasts (AID 2010).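 Also: cells exposed to compound for about 90 hours before reading.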 It counts as functional.
Assay [18] in a line: cells. Format: functional, cell-based. The source holds these as a separate data set.
The target in a further assay is Albumin (Bos taurus, UniProt P02769). In words: Counterscreen for inhibitors of T-cell receptor (TCR)-CD3 interaction: Fluorescence-based biochemical high throughput dose response assay to identify inhibitors of T-cell receptor (TCR)-CD3 interaction using a TAMRA-labeled BSA probe. It counts as functional.
Sequence of Albumin (P02769 whole entry): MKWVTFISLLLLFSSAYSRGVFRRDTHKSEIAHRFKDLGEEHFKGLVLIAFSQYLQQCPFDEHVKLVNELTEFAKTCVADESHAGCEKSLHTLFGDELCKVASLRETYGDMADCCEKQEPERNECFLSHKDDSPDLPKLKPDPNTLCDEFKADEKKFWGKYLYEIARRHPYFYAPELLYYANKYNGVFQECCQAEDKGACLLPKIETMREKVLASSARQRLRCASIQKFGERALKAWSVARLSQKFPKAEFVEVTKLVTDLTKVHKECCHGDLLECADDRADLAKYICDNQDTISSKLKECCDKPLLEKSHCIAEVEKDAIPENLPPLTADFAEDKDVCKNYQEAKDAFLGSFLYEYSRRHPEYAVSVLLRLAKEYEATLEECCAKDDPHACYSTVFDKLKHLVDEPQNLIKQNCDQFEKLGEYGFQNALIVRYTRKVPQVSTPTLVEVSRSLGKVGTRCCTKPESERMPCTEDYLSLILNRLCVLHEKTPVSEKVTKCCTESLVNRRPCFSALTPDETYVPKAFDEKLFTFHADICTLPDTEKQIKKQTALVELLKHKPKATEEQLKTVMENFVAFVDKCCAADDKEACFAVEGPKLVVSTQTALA
A short description of assay [19]: inhibitors of intracellular T. cruzi replication, confirmation, NIH3T3 host cells, beta-gal luminescence (AID 2044).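 Also: intracellular parasites grown in NIH/3T3 mouse fibroblasts as host cells; luminescent beta-galactosidase reporter signal from transgenic T. cruzi replicating inside host cells; inhibitors lower the luminescence signal.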 It counts as functional, cell-based.
The nature of assay [20]: HepG2 cell cytotoxicity, dose response, cytotoxicity control for non-replicating M. tuberculosis project (AID 489018). Conditions: Mycobacterium tuberculosis. It counts as functional.

The record followed here is ChEMBL document CHEMBL1201862, “PubChem BioAssay data set” (2004).

SMILES strings stand for the structures. Calls of active or inactive are those of the source.

T1 sequence (Q9P0U3 whole entry, the tested form may be a part): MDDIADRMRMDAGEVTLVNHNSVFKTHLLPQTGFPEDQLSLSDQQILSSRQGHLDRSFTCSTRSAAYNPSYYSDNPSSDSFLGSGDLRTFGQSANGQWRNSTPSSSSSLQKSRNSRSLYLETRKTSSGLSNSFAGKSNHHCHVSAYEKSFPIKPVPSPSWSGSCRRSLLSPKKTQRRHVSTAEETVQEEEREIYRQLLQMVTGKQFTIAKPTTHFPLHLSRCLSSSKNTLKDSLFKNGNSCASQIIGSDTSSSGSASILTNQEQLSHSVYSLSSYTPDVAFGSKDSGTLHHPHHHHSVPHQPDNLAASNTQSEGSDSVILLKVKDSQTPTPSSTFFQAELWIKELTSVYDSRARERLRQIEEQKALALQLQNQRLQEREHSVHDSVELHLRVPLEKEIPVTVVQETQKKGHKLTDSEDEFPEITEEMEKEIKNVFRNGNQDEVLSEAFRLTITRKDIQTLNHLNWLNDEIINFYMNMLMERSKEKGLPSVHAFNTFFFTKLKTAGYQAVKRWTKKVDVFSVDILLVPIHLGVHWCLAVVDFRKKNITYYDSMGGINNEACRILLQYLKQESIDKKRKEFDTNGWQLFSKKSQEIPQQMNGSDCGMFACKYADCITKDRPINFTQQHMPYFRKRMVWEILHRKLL
Sequence of Genome polyprotein (P29990 2492-3391 limits assumed): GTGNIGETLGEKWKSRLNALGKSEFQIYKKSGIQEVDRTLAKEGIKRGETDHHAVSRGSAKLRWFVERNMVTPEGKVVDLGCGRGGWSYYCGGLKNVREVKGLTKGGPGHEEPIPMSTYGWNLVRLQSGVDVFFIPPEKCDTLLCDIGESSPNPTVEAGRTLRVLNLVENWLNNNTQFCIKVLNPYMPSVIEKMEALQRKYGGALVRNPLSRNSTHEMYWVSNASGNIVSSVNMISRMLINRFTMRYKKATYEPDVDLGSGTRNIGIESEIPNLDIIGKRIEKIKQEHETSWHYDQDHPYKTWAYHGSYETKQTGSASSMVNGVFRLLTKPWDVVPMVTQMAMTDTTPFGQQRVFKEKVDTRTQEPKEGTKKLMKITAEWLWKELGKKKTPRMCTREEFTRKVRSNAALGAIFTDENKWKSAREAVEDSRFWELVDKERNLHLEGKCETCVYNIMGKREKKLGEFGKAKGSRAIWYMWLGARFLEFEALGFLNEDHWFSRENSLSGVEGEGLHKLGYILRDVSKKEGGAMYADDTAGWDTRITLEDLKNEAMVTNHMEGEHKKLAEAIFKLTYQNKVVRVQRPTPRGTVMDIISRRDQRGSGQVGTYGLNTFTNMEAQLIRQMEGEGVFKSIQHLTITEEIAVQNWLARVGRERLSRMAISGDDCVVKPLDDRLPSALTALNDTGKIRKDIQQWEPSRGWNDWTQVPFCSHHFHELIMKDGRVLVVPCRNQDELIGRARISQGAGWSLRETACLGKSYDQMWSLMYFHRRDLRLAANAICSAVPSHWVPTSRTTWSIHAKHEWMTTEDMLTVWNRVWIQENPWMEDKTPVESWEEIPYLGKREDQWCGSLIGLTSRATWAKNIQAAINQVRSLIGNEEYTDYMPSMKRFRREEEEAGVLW

As to `CCOC(=O)/C=C/c1cc(F)ccc1O`, the IC50 in assay [1] is 11.2 µM (active); in assay [2] it was 13.8 µM (active).
The AC50 is the concentration at which the activity in the assay is half-maximal. In the case of `COC(=O)C1=C(C)N(Cc2ccc(Cl)cc2)C(=S)NC1c1ccccc1` (centres undefined), the results for the AC50 with Cryptococcus neoformans [3] and in the assay on Cryptococcus neoformans [4] were 25.9 µM (active) and 36.1 µM (active), respectively.
With `COc1cccc(-c2cccc(-c3nc(C(=O)NCC(F)(F)F)cc4c3[C@H](CCO)N([S@@+]([O-])C(C)(C)C)C4)c2)c1`, the AbsAC35 in [5] amounted to 56.19 µM; in assay [6] it was 43.43 µM.
Usually CC50 stands for the concentration at which the toxic effect on the cells reaches its halfway point. For `COc1cc(/C=N/NC(=O)CCn2c3ccccc3c3ccccc32)ccc1O`, the IC50 in assay [7] is 85.8 µM (active). In assay [8], the CC50 was 100 µM (active).
Usually EC50 stands for the midpoint of the concentration-response curve. In the case of `Nc1scc2c(C(=O)N/N=C/c3ccc(Cl)cc3)nn(-c3ccccc3)c(=O)c12`, the IC50 is 70.6 µM (active) at Genome polyprotein; 0.5 µM (active) in [10]; 4.47 µM (active) at Caspase-3; 0.577 µM (active) in [11]; 1.95 µM (active) in assay [12]; > 50 µM (not active) in assay [13]. For the same compound, the AC50 in assay [9] is 7.02 µM (active). At Protein RecA, the EC50 is 5.71 µM (active).
For `O=C(N/N=C/c1cc(Br)cc(Br)c1O)c1cccc(N2CCCC2=O)c1`, the half-maximal effective concentration (EC50) is 138 µM (active) in the assay “cells [14]”, > 60 µM (not active) in [17], > 350 µM (not active) in “cells [18]” and 1.55 µM (active) in [19]. Besides, the values for the CC50 in assay [15], in [16] and in assay [20] were 15 µM (active), 15.2 µM (active) and > 20 µM (active), respectively. Further, the IC50 at Albumin was > 94.1 µM (inactive).
